{"source": "patent US11173196B2", "about": "“Vectors for expression of prostate-associated antigens” (Pfizer Inc., priority 2013, dated 2021)", "key": {"[1]": {"settings": "cited from earlier work"}, "rhesus PSMA": {"tested_on": "rhesus PSMA", "assay": "IFNγ ELISPOT from PBMCs, rhesus PSMA adenovirus vaccine with subcutaneous anti-CTLA-4 antibody", "type": "in vivo, Indian rhesus macaques", "protocol": "Animal Treatment and Sample Collection. Five groups of male Indian rhesus macaques, seven (#1 to 7) per each test group, were immunized with an adenovirus encoding a rhesus PSMA modified polypeptide delivered by bilateral intramuscular injections (2× 5e10 V.P.). Immediately following the adenovirus injections, group 1 received vehicle, and groups 2 to 4 received bilateral subcutaneous injections of anti-CTLA-4 antibody (CP-675, 206) at doses 2× 25 mg, 2× 16.7 mg and 2× 8.4 mg respectively in proximity to the vaccine draining lymph node.\nNine days after the immunization, peripheral blood mononuclear cells (PBMCs) were isolated from each animal and were subjected to an IFNγ ELISPOT assay to measure the rhesus PSMA specific T cell responses. Briefly, 4e5 PBMCs from individual animals were plated per well with pools of rhesus PSMA specific peptides (P1, P2, P3 or R1+R2 defined in Table 24A) or nonspecific control peptides (human HER2 peptide pool) each at 2 ug/ml in IFN[…] ELISPOT plates. The plates were incubated for 16 hrs at 37° C. and 5% CO2 and washed and developed after incubation as per manufacturer's instruction. The number of IFNγ spot forming cells (SFC) was counted by CTL reader. Each condition was performed in duplicates. The average of the duplicates from the background adjusted SFC of the rhesus PSMA specific peptide pools was normalized to the response in 1e6 PBMCs.\nIFNγ ELISPOT Assay Procedure. A capture antibody specific to IFNγ ([…]BD Bioscience, #51-2525kc) is coated onto a polyvinylidene fluoride (PVDF) membrane in a microplate overnight at 4° C. The plate is blocked with serum/protein to prevent nonspecific binding to the antibody. After blocking, effector cells (such as splenocytes isolated from immunized mice or PBMCs isolated from rhesus macaques) and targets (such as PSMA peptides from peptide library, target cells pulsed with antigen specific peptides or tumor cells expressing the relevant antigens) are added to the wells and incubated overnight at 37° C. in a 5% CO2 incubator. […]"}, "[2]": {"settings": "cited from earlier work", "remark": "listed apart in the source"}, "293 cells": {"tested_on": "293 cells", "assay": "Expression of PSMA constructs in mammalian 293 cells by FACS", "type": "cell-based", "protocol": "The expression of the PSMA cytosolic, secreted, and modified antigens was determined by FACS. Mammalian 293 cells were transfected with the PJV7563 PMED vectors encoding the various immunogenic PSMA polypeptides. Three days later, the 293 cells were stained with mouse anti-PSMA antibody, followed with a fluorescent conjugated (FITC) rat anti-mouse secondary antibody."}}, "note": "Read-outs that look alike come from different tables or passages of the source.", "data": [{"substance": "5′ TCGTCGTTTTGTCGTTTTGTCGTT3′ [CpG7909]", "values": [{"measurement": "dose limiting toxicity", "setting": "[1]; single dose subcutaneous", "value": "myalgia and constitutional effects"}, {"measurement": "maximum tolerated dose (MTD)", "setting": "[1]; single dose subcutaneous", "value": 0.45, "unit": "mg/kg"}, {"measurement": "dose well tolerated with no clinical effects and no significant toxicity", "setting": "[1]; single intravenous dose", "value": "up to 1.05 mg/kg"}]}, {"substance": "CP-675,206: fully human IgG2 anti-CTLA-4 monoclonal antibody, CAS 745013-59-6", "values": [{"measurement": "vaccine induced immune response compared to vaccine alone", "setting": "rhesus PSMA; 16.7 mg subcutaneous (group 4), P=0.05", "value": "significantly enhanced"}, {"measurement": "vaccine induced immune response compared to vaccine alone", "setting": "rhesus PSMA; 33.4 mg subcutaneous (group 3), P=0.004", "value": "significantly enhanced"}, {"measurement": "vaccine induced immune response compared to vaccine alone", "setting": "rhesus PSMA; dose of 50 mg subcutaneous (group 2), P=0.001 by Student's T-test", "value": "significantly enhanced"}]}, {"substance": "CP-870893: fully human agonistic CD40 monoclonal antibody, heavy and light chain SEQ ID NO: 40 and 41", "values": [{"measurement": "dose-limiting toxicities", "setting": "[2]; human, in vivo, iv", "value": "grade 3 CRS and grade 3 urticaria"}, {"measurement": "maximum tolerated dose (MTD)", "setting": "[2]; phase I clinical study, intravenous infusion", "value": 0.2, "unit": "mg/kg"}]}, {"substance": "human PSMA modified antigen (SEQ ID NO: 9): immunogenic polypeptide of amino acids 15-750 of human PSMA, membrane-bound, expressed from DNA construct in PJV7563 vector", "values": [{"measurement": "Average mean fluorescent intensity", "setting": "293 cells; 293 cells transfected with PJV7563 vector, stained three days later with mouse anti-PSMA antibody", "value": 12270}, {"measurement": "expression on the cell surface", "setting": "293 cells; transfected 293 cells, FACS", "value": "expressed on the cell surface"}]}]}
